For the experiment, the target named is Cyclic GMP-AMP synthase (Mus musculus, UniProt Q8C6L5). The experiment can be described thus: Inhibition of mouse cGAS by ATP consumption assay.

Consider one compound from ChEMBL document CHEMBL5329150, “STING antagonists, synthesized via Povarov-Doebner type multicomponent reaction” (RSC Med Chem, 2023).

Cyclic GMP-AMP synthase, sequence (Q8C6L5 whole entry): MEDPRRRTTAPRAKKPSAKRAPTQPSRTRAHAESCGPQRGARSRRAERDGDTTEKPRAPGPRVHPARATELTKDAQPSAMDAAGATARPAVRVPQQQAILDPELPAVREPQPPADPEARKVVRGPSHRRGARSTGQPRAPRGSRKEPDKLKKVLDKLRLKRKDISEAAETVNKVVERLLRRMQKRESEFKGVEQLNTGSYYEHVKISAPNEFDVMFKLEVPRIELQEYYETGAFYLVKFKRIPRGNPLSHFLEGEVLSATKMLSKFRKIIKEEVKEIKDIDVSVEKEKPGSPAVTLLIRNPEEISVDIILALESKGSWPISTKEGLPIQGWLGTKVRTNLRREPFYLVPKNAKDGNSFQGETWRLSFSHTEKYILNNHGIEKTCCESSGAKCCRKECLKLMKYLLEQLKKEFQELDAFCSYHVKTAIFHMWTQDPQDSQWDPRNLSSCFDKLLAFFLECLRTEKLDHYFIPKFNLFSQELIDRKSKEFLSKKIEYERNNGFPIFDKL

For the compound `CCn1nc(C)cc1C(=O)Nc1nc2cc(C(N)=O)cc(OC)c2n1C/C=C/Cn1c(NC(=O)c2cc(C)nn2CC)nc2cc(C(N)=O)cc(OCCCN3CCOCC3)c21`, half-maximal inhibition (IC50) was put at 270 nM.
